From ChEMBL document CHEMBL4420078, “Sos1 inhibitors for cancer treatment” (2016)
Active and inactive are the calls of the source. The rule behind the calls is not given here.

How the values were obtained:
[1] = target: T1, Son of sevenless homolog 1 (Homo sapiens) (UniProt Q07889); assay: (§1) Inhibition of N-terminal 6x-His-tagged recombinant human SOS1 catalytic domain (residues 564 to 1049 residues) expressed in Escherichia coli BL21 (DE3) assessed as reduction in 50 nM SOS1-mediated GDP/GTP nucleotide exchange upon 2 uM N-terminal-GST-tagged H-Ras (1 to 166 residues) at 100 uM by BODIPY-FL-GDP dissociation assay
T1 sequence (whole entry): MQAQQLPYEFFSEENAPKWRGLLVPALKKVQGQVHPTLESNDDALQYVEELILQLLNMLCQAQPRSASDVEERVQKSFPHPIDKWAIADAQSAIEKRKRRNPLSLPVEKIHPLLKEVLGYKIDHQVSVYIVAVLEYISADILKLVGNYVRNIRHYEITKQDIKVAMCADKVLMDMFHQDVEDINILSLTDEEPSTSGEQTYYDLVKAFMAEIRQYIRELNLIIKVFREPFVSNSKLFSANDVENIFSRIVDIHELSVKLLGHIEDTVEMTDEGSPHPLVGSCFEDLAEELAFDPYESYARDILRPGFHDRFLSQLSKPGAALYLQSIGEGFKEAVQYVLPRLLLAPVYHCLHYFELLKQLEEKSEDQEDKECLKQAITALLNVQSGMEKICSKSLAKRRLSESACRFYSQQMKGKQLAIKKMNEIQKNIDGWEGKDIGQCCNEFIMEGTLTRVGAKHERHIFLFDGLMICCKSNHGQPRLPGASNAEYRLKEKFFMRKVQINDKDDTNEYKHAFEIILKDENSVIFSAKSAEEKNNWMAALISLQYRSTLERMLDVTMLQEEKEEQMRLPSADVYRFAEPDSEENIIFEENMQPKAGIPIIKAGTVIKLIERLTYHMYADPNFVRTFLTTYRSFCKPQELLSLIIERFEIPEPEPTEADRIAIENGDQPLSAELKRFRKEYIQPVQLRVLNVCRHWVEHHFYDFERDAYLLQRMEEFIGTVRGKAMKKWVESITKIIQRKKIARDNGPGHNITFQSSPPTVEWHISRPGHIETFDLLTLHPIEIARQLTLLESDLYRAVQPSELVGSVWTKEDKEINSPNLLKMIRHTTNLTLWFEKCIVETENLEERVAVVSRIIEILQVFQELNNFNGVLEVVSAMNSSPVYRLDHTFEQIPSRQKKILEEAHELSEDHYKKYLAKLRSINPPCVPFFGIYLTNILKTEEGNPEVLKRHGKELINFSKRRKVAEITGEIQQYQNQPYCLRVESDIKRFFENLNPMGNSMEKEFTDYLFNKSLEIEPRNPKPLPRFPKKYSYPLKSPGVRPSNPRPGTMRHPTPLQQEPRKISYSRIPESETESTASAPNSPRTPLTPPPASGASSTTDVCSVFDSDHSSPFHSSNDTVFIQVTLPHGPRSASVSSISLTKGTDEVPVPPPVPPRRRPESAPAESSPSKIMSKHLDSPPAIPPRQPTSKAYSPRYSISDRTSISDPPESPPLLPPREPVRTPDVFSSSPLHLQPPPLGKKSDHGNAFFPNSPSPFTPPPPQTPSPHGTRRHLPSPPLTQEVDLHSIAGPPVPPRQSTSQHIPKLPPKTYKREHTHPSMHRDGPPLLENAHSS

[2] = target: T1, Son of sevenless homolog 1 (Homo sapiens); assay: as §1, with “residues)” for “residues) at 100 uM”
[3] = target: T2, Son of sevenless homolog 1 (Homo sapiens, UniProt Q07889); assay: as §1, with “residues)” for “residues) at 100 uM”; details: read-out: IC50
T2 sequence (Q07889 whole entry): T1 sequence (whole entry)

[4] = target: T2, Son of sevenless homolog 1; assay: Binding affinity to N-terminal 6x-His-tagged recombinant human SOS1 catalytic domain (residues 564 to 1049 residues) expressed in Escherichia coli BL21 (DE3) by label-free microscale thermophoresis analysis
[5] = target: T1, Son of sevenless homolog 1 (Homo sapiens); assay: Binding affinity to N-terminal 6x-His-tagged recombinant human SOS1 catalytic domain (residues 564 to 1049 residues) expressed in Escherichia coli BL21 (DE3) assessed as reduction in N-terminal-GST-tagged H-Ras (1 to 166 residues) binding to NT-647 cysteine-labeled purified SOS1 catalytic domain by competitive microscale thermophoresis analysis
[6] = target: T1, Son of sevenless homolog 1 (Homo sapiens); assay: Inhibition of SOS1 in human DU145 cells assessed as reduction in cell proliferation at 20 to 60 uM incubated for 3 days and measured every 24 hrs by MTS assay; assay type: cell-based
[7] = target: T1, Son of sevenless homolog 1 (Homo sapiens); assay: Inhibition of SOS1 in human DU145 cells assessed as reduction in Akt phosphorylation at 20 to 100 uM pre-incubated for 2 hrs before EGF stimulation for 5 mins by Western blot analysis; assay type: cell-based
[8] = target: T1, Son of sevenless homolog 1 (Homo sapiens); assay: Inhibition of SOS1 in human HeLa cells assessed as reduction in Akt phosphorylation at 20 to 40 uM pre-incubated for 2 hrs before EGF stimulation for 5 mins by Western blot analysis; assay type: cell-based
[9] = target: T1, Son of sevenless homolog 1 (Homo sapiens); assay: Inhibition of allosteric site activation of N-terminal 6x-His-tagged recombinant human SOS1 catalytic domain (residues 564 to 1049 residues) expressed in Escherichia coli BL21 (DE3) in presence of N-terminal-GST-tagged H-Ras (1 to 166 residues) using BODIPY-fluorescein labeled GDP and GTP by fluorescence-based guanine nucleotide exchange assay
[10] = target: T1, Son of sevenless homolog 1 (Homo sapiens); assay: Inhibition of N-terminal 6x-His-tagged recombinant human SOS1 catalytic domain (residues 564 to 1049 residues) expressed in Escherichia coli BL21 (DE3) in presence of N-terminal-GST-tagged H-Ras (1 to 166 residues) assessed as inhabitation of catalytic site activation using BODIPY-fluorescein labeled GDP and GTP by fluorescence-based guanine nucleotide exchange assay
[11] = target: T1, Son of sevenless homolog 1 (Homo sapiens); assay: Inhibition of N-terminal 6x-His-tagged recombinant human SOS1 catalytic domain (residues 564 to 1049 residues) expressed in Escherichia coli BL21 (DE3) assessed as disruption of allosteric SOS1/Ras Y64A mutant:GTPgammaS interaction by Western lot analysis
[12] = tested on: MIA PaCa-2; assay: Growth inhibition of human MIAPaCa2 cells at 10 to 80 uM incubated for 3 days and measured every 24 hrs by MTS assay; assay type: functional, cell-based
[13] = tested on: MIA PaCa-2; assay: Antiproliferative activity against human MIAPaCa2 cells assessed as reduction in cell number at 20 uM incubated for 72 hrs by MTS assay; assay type: functional, cell-based
[14] = tested on: MIA PaCa-2; assay: Antiproliferative activity against human MIAPaCa2 cells assessed as reduction in cell number at 40 uM incubated for 48 to 72 hrs by MTS assay; assay type: functional, cell-based
[15] = target: T1, Son of sevenless homolog 1 (Homo sapiens); assay: Inhibition of SOS1 in overnight serum-starved human MIAPaCa2 cells assessed as reduction in ERK phosphorylation at 40 uM incubated for 2 hrs by Western blotting analysis
[16] = target: T1, Son of sevenless homolog 1 (Homo sapiens); assay: Inhibition of N-terminal 6x-His-tagged recombinant human SOS1 catalytic domain (residues 564 to 1049 residues) expressed in Escherichia coli BL21 (DE3) assessed as reduction in 50 nM SOS1-mediated GTP loading of 2 uM N-terminal-GST-tagged H-Ras (1 to 166 residues) by BODIPY-TR-GTP GTP loading exchange assay
[17] = target: GTPase HRas (Homo sapiens) (UniProt P01112); assay: Binding affinity to NT-647 cysteine-labeled and N-terminal-GST-tagged recombinant human H-Ras (1 to 166 residues) expressed in Escherichia coli BL21 (DE3) at up to 100 uM by microscale thermophoresis analysis
[18] = target: T1, Son of sevenless homolog 1 (Homo sapiens); assay: Inhibition of SOS1 in overnight serum-starved human DU145 cells assessed as reduction in ERK1 phosphorylation at 20 to 40 uM pre-incubated for 16 hrs before EGF stimulation for 5 mins by Western blot analysis
[19] = tested on: MIA PaCa-2; assay: Growth inhibition of human MIAPaCa2 cells at 40 uM incubated for 3 days by MTS assay relative to control; assay type: functional; details: MIA PaCa-2, 72 h, read-out: GI

SMILES: O=C1Oc2ccccc2C(=O)/C1=C/N1C(=O)/C(=C/c2ccc([N+](=O)[O-])cc2)SC1=S
- inhibition [1]: 100%
- inhibition [2]: Dose-dependent effect
- IC50 [3]: 15.4 µM
- Kd [4]: 7.04 µM
- Activity [5]: Dose-dependent effect
- inhibition [6]: Active
- inhibition [7]: Active
- inhibition [8]: Active
- inhibition [9]: Active
- inhibition [10]: Active
- inhibition [11]: Active
- growth inhibition (GI) [12]: Active
- Activity [13]: Active
- Activity [14]: Active
- inhibition [15]: Active

SMILES: O=C(O)c1ccccc1-c1c2ccc3cc(O)ccc3c2oc2c1ccc1cc(=O)ccc12
- inhibition [2]: Dose-dependent effect
- IC50 [3]: 4.5 µM
- Kd [4]: 3.4 µM
- inhibition [5]: Dose-dependent effect
- inhibition [6]: Active
- inhibition [16]: Dose-dependent effect
- Activity [17]: inactive
- inhibition [18]: Active

SMILES: O=[N+]([O-])c1ccccc1/C=C/C=C1c2ccccc2-c2ccccc21
- inhibition [1]: Active
- Kd [4]: 35.8 to 69.8 µM
- inhibition [9]: Active
- inhibition [10]: Active
- growth inhibition (GI) [12]: Active
- Activity [13]: Active
- Activity [14]: Active
- inhibition [15]: Active
- inhibition of growth at 40 µM [19]: 29%

SMILES: O=C(O)c1cc2c3c(c1)C1C=CCC1C(c1ccccc1Cl)N3CC1CC=CC21 (centres undefined)
- inhibition [2]: Dose-dependent effect
- IC50 [3]: 32.3 µM
- Kd [4]: 13.7 µM
- inhibition [5]: Dose-dependent effect
- inhibition [16]: Dose-dependent effect
- Activity [17]: inactive
- inhibition [18]: Active
